Measured values from PubChem BioAssay AID328 (DTP/NCI, 2004).
Toxic doses and inconclusive results are not listed. How the source made its calls: active means survival T/C of 150% or more; inactive means T/C below 125% in these data.

Tested on: BDF1 mice, P388 leukemia ip, median survival T/C
Experiment: NCI In Vivo Anticancer Drug Screen. Data for tumor model P388 Leukemia (intraperitoneal) in B6D2F1 (BDF1) mice
Conditions: endpoint: median survival time, higher = longer survival
How it was run: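 Transplantable tumour in mice; compound vs vehicle dosing; survival scored; ratio of treated to control reported.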

[1] = dose: 100.0 mg/kg/injection, schedule: Q04DX003 (ip), vehicle: saline
[2] = dose: 200.0 mg/kg/injection, schedule: Q04DX003 (ip), vehicle: saline
[3] = dose: 400.0 mg/kg/injection, schedule: Q04DX003 (ip), vehicle: saline
[4] = dose: 50.0 mg/kg/injection, schedule: Q01DX009 (ip), vehicle: saline with Tween-80
[5] = dose: 100.0 mg/kg/injection, schedule: Q01DX009 (ip), vehicle: saline with Tween-80
[6] = dose: 6.25 mg/kg/injection, schedule: Q01DX009 (ip), vehicle: saline
[7] = dose: 100.0 mg/kg/injection, schedule: Q04DX003 (ip), vehicle: saline with Tween-80
[8] = dose: 200.0 mg/kg/injection, schedule: Q04DX003 (ip), vehicle: saline with Tween-80
[9] = dose: 400.0 mg/kg/injection, schedule: Q04DX003 (ip), vehicle: saline with Tween-80

Measured: T/C

Nc1nc(N)c2cc(CNc3ccc(Cl)c(C(=O)NC(CC(=O)O)C(=O)O)c3)cnc2n1 (stereo not drawn)
inactive: dose: 100.0 mg/kg/injection, schedule: Q01DX009 (ip), vehicle: saline 100 % of control | [1] 102 % of control | dose: 200.0 mg/kg/injection, schedule: Q01DX009 (ip), vehicle: saline 100 % of control | [2] 99 % of control | dose: 400.0 mg/kg/injection, schedule: Q01DX009 (ip), vehicle: saline 108 % of control | [3] 94 % of control

[O-][N+](=Nc1cccc(Cl)c1)c1cccc(Cl)c1
inactive: [4] 93 % of control | dose: 66.0 mg/kg/injection, schedule: Q01DX009 (ip), vehicle: saline with Tween-80 89 % of control | [5] 93 % of control | dose: 150.0 mg/kg/injection, schedule: Q01DX009 (ip), vehicle: saline with Tween-80 90 % of control | dose: 200.0 mg/kg/injection, schedule: Q01DX009 (ip), vehicle: saline with Tween-80 94 % of control

CC([NH-])C(=O)O.CC([NH-])C(=O)O.[Ni+2] (stereo not drawn)
inactive: dose: 4.0 mg/kg/injection, schedule: Q01DX009 (ip), vehicle: saline 109 % of control | [6] 103 % of control | dose: 8.0 mg/kg/injection, schedule: Q01DX009 (ip), vehicle: saline 113 % of control | dose: 12.5 mg/kg/injection, schedule: Q01DX009 (ip), vehicle: saline 107 % of control | dose: 15.0 mg/kg/injection, schedule: Q04DX003 (ip), vehicle: saline 113 % of control | dose: 16.0 mg/kg/injection, schedule: Q01DX009 (ip), vehicle: saline 113 % of control | dose: 25.0 mg/kg/injection, schedule: Q04DX003 (ip), vehicle: saline 118 % of control

c1cc[n+]2c(c1)-c1cccc[n+]1CC2
inactive: dose: 3.13 mg/kg/injection, schedule: Q04DX003 (ip), vehicle: saline 100 % of control | dose: 6.25 mg/kg/injection, schedule: Q04DX003 (ip), vehicle: saline 95 % of control | dose: 12.5 mg/kg/injection, schedule: Q04DX003 (ip), vehicle: saline 100 % of control

COc1ccc(CN2COc3c(cc(C)c4cccnc34)C2)cc1
inactive: dose: 12.5 mg/kg/injection, schedule: Q01DX009 (ip), vehicle: saline with Tween-80 90 % of control | dose: 25.0 mg/kg/injection, schedule: Q01DX009 (ip), vehicle: saline with Tween-80 94 % of control | [4] 92 % of control

CCOC(=O)/C(=C\c1ccc2c(c1)OCO2)NC(=O)c1ccccc1
inactive: dose: 100.0 mg/kg/injection, schedule: Q01DX001 (ip), vehicle: Klucel (hydroxypropylcellulose) (HPC) 104 % of control | [1] 112 % of control | dose: 200.0 mg/kg/injection, schedule: Q01DX001 (ip), vehicle: Klucel (hydroxypropylcellulose) (HPC) 100 % of control | [2] 95 % of control | dose: 400.0 mg/kg/injection, schedule: Q01DX001 (ip), vehicle: Klucel (hydroxypropylcellulose) (HPC) 100 % of control | [3] 95 % of control

CCc1c(/C=C2/OC(=O)NC2=O)[nH]c(=S)[nH]c1=O
inactive: [7] 100 % of control | [8] 91 % of control | [9] 104 % of control

CCCCCCCC[N+]12CC[N+](CCCCCCCC)(CC1)CC2
inactive: dose: 3.13 mg/kg/injection, schedule: Q01DX009 (ip), vehicle: saline 106 % of control | [6] 103 % of control

CCOC(=O)C(Cc1ccccc1Cl)(NC(C)=O)C(=O)OCC
inactive: [5] 100 % of control | [7] 90 % of control | [8] 100 % of control | dose: 400.0 mg/kg/injection, schedule: Q01DX009 (ip), vehicle: saline with Tween-80 90 % of control | [9] 104 % of control

Cc1ccc(C)c(NC(=O)c2ccc(Cl)cc2)c1
inactive: dose: 100.0 mg/kg/injection, schedule: Q01DX001 (ip), vehicle: saline with Tween-80 104 % of control | dose: 200.0 mg/kg/injection, schedule: Q01DX001 (ip), vehicle: saline with Tween-80 104 % of control | dose: 400.0 mg/kg/injection, schedule: Q01DX001 (ip), vehicle: saline with Tween-80 100 % of control
